A word on the Ki: it is a dissociation constant, usually derived from enzyme kinetics or from competition with a known ligand. High values mean weaker binding, low ones tighter binding.

The target in the assay is T1, D(4) dopamine receptor (Homo sapiens, UniProt P21917).
T1 sequence (P21917 whole entry): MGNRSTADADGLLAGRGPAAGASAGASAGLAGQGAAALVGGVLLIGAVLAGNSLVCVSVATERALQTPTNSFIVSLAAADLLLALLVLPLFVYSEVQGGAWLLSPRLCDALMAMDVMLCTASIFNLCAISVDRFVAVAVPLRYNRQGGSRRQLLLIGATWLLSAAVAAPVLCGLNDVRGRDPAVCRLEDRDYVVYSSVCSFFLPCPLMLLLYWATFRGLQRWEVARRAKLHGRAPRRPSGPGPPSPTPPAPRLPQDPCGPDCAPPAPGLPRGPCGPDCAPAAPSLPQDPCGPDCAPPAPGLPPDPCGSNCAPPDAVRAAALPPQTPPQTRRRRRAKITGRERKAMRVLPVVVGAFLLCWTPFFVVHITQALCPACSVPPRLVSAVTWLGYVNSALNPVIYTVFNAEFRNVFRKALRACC
Kind of assay: Ability to displace [3H]spiperone from dopamine receptor D4.4 expressed in CHO-K1 cells.
Compound `CCN1CCN(Cc2cnn3ccccc23)CC1` registered an inhibition constant (Ki) of 23900 nM.

Compound `Clc1ccc(N2CCN(Cc3cnn4ccccc34)CC2)cc1Cl` returned an inhibition constant Ki of 5.62 nM.

The compound `C#Cc1ccc(N2CCN(Cc3cnn4ccccc34)CC2)cc1` returned an inhibition constant (Ki) of 4.37 nM.

Take `Clc1ccc(N2CCN(Cc3ccc[nH]3)CC2)cc1`: affinity was put at a Ki of 26.3 nM.

Regarding `Cc1cccc2c(CN3CCN(c4ccc(Cl)cc4)CC3)cnn12` [4-(4-Chloro-phenyl)-1-(7-methyl-pyrazolo[1,5-a]pyridin-3-ylmethyl)-piperazin-1-ium], the Ki was 2.69 nM.

The compound `Fc1ccc(N2CCN(Cc3cnn4ccccc34)CC2)cc1` gave an inhibitory constant (Ki) of 20 nM.

On to `Clc1ccc(N2CCN(Cc3ccccc3)CC2)cc1`, for which the Ki is 251 nM.

`FC(F)(F)c1cccc(N2CCN(Cc3cnn4ccccc34)CC2)c1` had an inhibition constant (Ki) of 1.91 nM.

Regarding `Clc1cccc(N2CCN(Cc3cnn4ccc5ccccc5c34)CC2)c1`, affinity was put at a Ki of 794 nM.

Regarding `Clc1ccc(N2CCN(Cc3cc4ccccc4[nH]3)CC2)cc1`, the Ki turned out to be 18.2 nM.

With `Clc1ccc(N2CCN(Cc3cnn4c(I)cccc34)CC2)cc1`, the affinity corresponds to a Ki of 5.01 nM.

`Cc1cccn2ncc(CN3CCN(c4ccc(Cl)cc4)CC3)c12` [3-[4-(4-Chloro-phenyl)-piperazin-1-ylmethyl]-4-methyl-pyrazolo[1,5-a]pyridine]: the Ki came out at 50.1 nM.

In the case of `OCc1ccc2c(CN3CCN(c4ccccc4)CC3)cnn2c1`, the Ki was 19.5 nM.

Regarding `N#CC(C#N)=Cc1ccc(CN2CCN(c3ccc(Cl)cc3)CC2)[nH]1` [4-(4-Chloro-phenyl)-1-[5-(2,2-dicyano-vinyl)-1H-pyrrol-2-ylmethyl]-piperazin-1-ium], the affinity, expressed as Ki, was 9.55 nM.

Compound `Clc1cccc(N2CCN(Cc3cnn4c3ccc3ccccc34)CC2)c1` displayed a Ki of 218 nM.

Compound `C#Cc1cccc2c(CN3CCN(c4ccc(Cl)cc4)CC3)cnn12` [3-[4-(4-Chloro-phenyl)-piperazin-1-ylmethyl]-7-ethynyl-pyrazolo[1,5-a]pyridine] returned a Ki of 1.23 nM.

As to `Clc1ccc(N2CCN(Cc3cc[nH]c3)CC2)cc1`, the inhibition constant (Ki) came out at 38.9 nM.

In turn, `Clc1ccc(N2CCN(Cc3cc4ccccn4n3)CC2)cc1` [4-(4-Chloro-phenyl)-1-pyrazolo[1,5-a]pyridin-2-ylmethyl-piperazin-1-ium] gave an inhibition constant Ki of 2.19 nM.

These data come from BindingDB's records for doi:10.1021/jm001055e (Friedrich-Alexander University, 2001).
